Assay results from PubChem BioAssay (NCI).
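Method: 48-hour compound exposure of cells in 96-well plates, five concentrations, linear interpolation of endpoints. TGI denotes the concentration required for complete inhibition of growth.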

Experiments:
Experiment in all cases: NCI tumour cell line growth inhibition, 48 h
SK-MEL-2 melanoma = test system: SK-MEL-2 melanoma
HOP-92 NSCLC = test system: HOP-92 NSCLC
NCI-H23 lung = test system: NCI-H23 lung
DU-145 prostate = test system: DU-145 prostate
K-562 leukemia = test system: K-562 leukemia
UACC-257 melanoma = test system: UACC-257 melanoma
HL-60(TB) leukemia = test system: HL-60(TB) leukemia
ACHN renal = test system: ACHN renal
MCF7 breast = test system: MCF7 breast
HCT-116 colon = test system: HCT-116 colon
OVCAR-8 ovarian = test system: OVCAR-8 ovarian
NCI-H522 lung = test system: NCI-H522 lung
SW-620 colon = test system: SW-620 colon
SF-268 CNS = test system: SF-268 CNS
U251 CNS = test system: U251 CNS
NCI/ADR-RES ovarian = test system: NCI/ADR-RES ovarian
OVCAR-4 ovarian = test system: OVCAR-4 ovarian
SF-539 CNS = test system: SF-539 CNS
MDA-N = test system: MDA-N
UACC-62 melanoma = test system: UACC-62 melanoma
A498 renal = test system: A498 renal
CAKI-1 renal = test system: CAKI-1 renal
SNB-19 CNS = test system: SNB-19 CNS
HT29 colon = test system: HT29 colon
NCI-H226 lung = test system: NCI-H226 lung
RPMI-8226 leukemia = test system: RPMI-8226 leukemia
786-0 renal = test system: 786-0 renal
OVCAR-5 ovarian = test system: OVCAR-5 ovarian
CCRF-CEM leukemia = test system: CCRF-CEM leukemia
M14 melanoma = test system: M14 melanoma
HOP-62 NSCLC = test system: HOP-62 NSCLC
HS 578T breast = test system: HS 578T breast
EKVX NSCLC = test system: EKVX NSCLC
MOLT-4 leukemia = test system: MOLT-4 leukemia
BT-549 breast = test system: BT-549 breast
HCT-15 colon = test system: HCT-15 colon
PC-3 prostate = test system: PC-3 prostate
RXF 393 renal = test system: RXF 393 renal
KM12 colon = test system: KM12 colon
TK-10 renal = test system: TK-10 renal
MDA-MB-231 breast = test system: MDA-MB-231 breast
MALME-3M melanoma = test system: MALME-3M melanoma
SR leukemia = test system: SR leukemia
T-47D breast = test system: T-47D breast
UO-31 renal = test system: UO-31 renal
COLO 205 colon = test system: COLO 205 colon
SK-MEL-28 melanoma = test system: SK-MEL-28 melanoma
SK-MEL-5 melanoma = test system: SK-MEL-5 melanoma
OVCAR-3 ovarian = test system: OVCAR-3 ovarian
IGROV1 ovarian = test system: IGROV1 ovarian
HCC-2998 colon = test system: HCC-2998 colon
LOX IMVI melanoma = test system: LOX IMVI melanoma
SF-295 CNS = test system: SF-295 CNS
SN12C renal = test system: SN12C renal
NCI-H460 lung = test system: NCI-H460 lung
MDA-MB-435 = test system: MDA-MB-435
SK-OV-3 ovarian = test system: SK-OV-3 ovarian

SMILES: NNC(=O)CCc1ccc2ccc3ccccc3c2c1
- TGI (SK-MEL-2 melanoma): > 100 µM
- TGI (HOP-92 NSCLC): > 100 µM
- TGI (NCI-H23 lung): > 100 µM
- TGI (DU-145 prostate): > 100 µM
- TGI (K-562 leukemia): > 100 µM
- TGI (UACC-257 melanoma): > 100 µM
- TGI (HL-60(TB) leukemia): > 100 µM
- TGI (ACHN renal): > 100 µM
- TGI (MCF7 breast): > 100 µM
- TGI (HCT-116 colon): > 100 µM
- TGI (OVCAR-8 ovarian): > 100 µM
- TGI (NCI-H522 lung): > 100 µM
- TGI (SW-620 colon): > 100 µM
- TGI (SF-268 CNS): > 100 µM
- TGI (U251 CNS): > 100 µM
- TGI (NCI/ADR-RES ovarian): > 100 µM
- TGI (OVCAR-4 ovarian): > 100 µM
- TGI (SF-539 CNS): > 100 µM
- TGI (MDA-N): > 100 µM
- TGI (UACC-62 melanoma): > 100 µM
- TGI (A498 renal): > 100 µM
- TGI (CAKI-1 renal): > 100 µM
- TGI (SNB-19 CNS): > 100 µM
- TGI (HT29 colon): > 100 µM
- TGI (NCI-H226 lung): > 100 µM
- TGI (RPMI-8226 leukemia): > 100 µM
- TGI (786-0 renal): > 100 µM
- TGI (OVCAR-5 ovarian): > 100 µM
- TGI (CCRF-CEM leukemia): > 100 µM
- TGI (M14 melanoma): > 100 µM
- TGI (HOP-62 NSCLC): > 100 µM
- TGI (HS 578T breast): > 100 µM
- TGI (EKVX NSCLC): 97.9 µM
- TGI (MOLT-4 leukemia): > 100 µM
- TGI (BT-549 breast): > 100 µM
- TGI (HCT-15 colon): > 100 µM
- TGI (PC-3 prostate): > 100 µM
- TGI (RXF 393 renal): > 100 µM
- TGI (KM12 colon): > 100 µM
- TGI (TK-10 renal): > 100 µM
- TGI (MDA-MB-231 breast): > 100 µM
- TGI (MALME-3M melanoma): > 100 µM
- TGI (SR leukemia): > 100 µM
- TGI (T-47D breast): > 100 µM
- TGI (UO-31 renal): > 100 µM
- TGI (COLO 205 colon): > 100 µM
- TGI (SK-MEL-28 melanoma): > 100 µM
- TGI (SK-MEL-5 melanoma): > 100 µM
- TGI (OVCAR-3 ovarian): > 100 µM
- TGI (IGROV1 ovarian): > 100 µM
- TGI (HCC-2998 colon): > 100 µM
- TGI (LOX IMVI melanoma): > 100 µM
- TGI (SF-295 CNS): > 100 µM
- TGI (SN12C renal): > 100 µM
- TGI (NCI-H460 lung): > 100 µM
- TGI (MDA-MB-435): > 100 µM
- TGI (SK-OV-3 ovarian): > 100 µM
